Experimental data reported in ChEMBL document CHEMBL5325456, “5-(4-Hydroxyphenyl)-3H-1,2-dithiole-3-thione derivatives of brefeldin A: Design, synthesis and cytotoxicity in MDA-MB-231 human breast cancer cells” (Bioorg Med Chem, 2023).

Assays:
[1] = tested on: DU-145; test: Antiproliferative activity against human DU-145 cells assessed as reduction in cell viability incubated for 48 hrs by CCk-8 assay; format: functional, cell-based; details: DU-145, 48 h
[2] = tested on: MDA-MB-231; test: Antiproliferative activity against human MDA-MB-231 cells assessed as reduction in cell viability incubated for 48 hrs by CCk-8 assay; format: functional, cell-based; details: MDA-MB-231, 48 h
[3] = Antiproliferative activity against human L02 cells assessed as reduction in cell viability incubated for 48 hrs by CCk-8 assay; format: toxicity, cell-based
[4] = tested on: A-375; test: Antiproliferative activity against human A-375 cells assessed as reduction in cell viability incubated for 48 hrs by CCk-8 assay; format: functional, cell-based; details: A-375, 48 h
[5] = tested on: A549; test: Antiproliferative activity against human A549 cells assessed as reduction in cell viability incubated for 48 hrs by CCk-8 assay; format: functional, cell-based; details: A549, 48 h
[6] = tested on: HepG2; test: Antiproliferative activity against human HepG2 cells assessed as reduction in cell viability incubated for 48 hrs by CCk-8 assay; format: functional, cell-based; details: HepG2, 48 h
[7] = tested on: HeLa; test: Antiproliferative activity against human HeLa cells assessed as reduction in cell viability incubated for 48 hrs by CCk-8 assay; format: functional, cell-based
[8] = Selectivity index, ratio of IC50 for antiproliferative activity against human L02 cells to IC50 for antiproliferative activity against human MDA-MB-231 cells; format: toxicity, cell-based; details: L02 cells and MDA-MB-231 cells, read-out: Ratio IC50

IC50 [1]	IC50 [2]	IC50 [4]	IC50 [5]	IC50 [6]	IC50 [7]	Structure (SMILES)	IC50 at 48 h [3]	selectivity ratio [8]
> 40 µM	> 40 µM	> 40 µM	> 40 µM	> 40 µM	> 40 µM	C[C@H]1CCC/C=C/[C@@H]2C[C@H](OC(=O)CCCC(=O)Oc3ccc(-c4cc(=S)ss4)cc3)C[C@H]2[C@H](OC(=O)CCCC(=O)Oc2ccc(-c3cc(=S)ss3)cc2)/C=C/C(=O)O1	> 40 µM	–
> 40 µM	> 40 µM	> 40 µM	> 40 µM	> 40 µM	> 40 µM	C[C@H]1CCC/C=C/[C@@H]2C[C@H](O)C[C@H]2[C@H](OC(=O)c2ccccc2C(=O)OCCOc2ccc(-c3cc(=S)ss3)cc2)/C=C/C(=O)O1	> 80 µM	–
> 40 µM	> 40 µM	> 40 µM	> 40 µM	> 40 µM	> 40 µM	C[C@H]1CCC/C=C/[C@@H]2C[C@H](OC(=O)CCC(=O)OCCCCCCOc3ccc(-c4cc(=S)ss4)cc3)C[C@H]2[C@H](OC(=O)CCC(=O)OCCCCCCOc2ccc(-c3cc(=S)ss3)cc2)/C=C/C(=O)O1	> 40 µM	–
> 40 µM	> 40 µM	> 40 µM	> 40 µM	> 40 µM	26.9 µM	C[C@H]1CCC/C=C/[C@@H]2C[C@H](O)C[C@H]2[C@H](OC(=O)c2ccccc2C(=O)OCCCCOc2ccc(-c3cc(=S)ss3)cc2)/C=C/C(=O)O1	> 80 µM	–
> 40 µM	> 40 µM	> 40 µM	> 40 µM	> 40 µM	> 40 µM	C[C@H]1CCC/C=C/[C@@H]2C[C@H](OC(=O)c3ccccc3C(=O)OCCCCCCOc3ccc(-c4cc(=S)ss4)cc3)C[C@H]2[C@H](OC(=O)c2ccccc2C(=O)OCCCCCCOc2ccc(-c3cc(=S)ss3)cc2)/C=C/C(=O)O1	> 40 µM	–
> 40 µM	> 40 µM	> 40 µM	> 40 µM	> 40 µM	> 40 µM	C[C@H]1CCC/C=C/[C@@H]2C[C@H](OC(=O)c3ccccc3C(=O)OCCCCOc3ccc(-c4cc(=S)ss4)cc3)C[C@H]2[C@H](OC(=O)c2ccccc2C(=O)OCCCCOc2ccc(-c3cc(=S)ss3)cc2)/C=C/C(=O)O1	> 40 µM	–
> 40 µM	> 40 µM	> 40 µM	> 40 µM	> 40 µM	> 40 µM	C[C@H]1CCC/C=C/[C@@H]2C[C@H](O)C[C@H]2[C@H](OC(=O)c2ccccc2C(=O)OCCCCCCOc2ccc(-c3cc(=S)ss3)cc2)/C=C/C(=O)O1	> 80 µM	–
> 40 µM	> 40 µM	> 40 µM	> 40 µM	> 40 µM	> 40 µM	C[C@H]1CCC/C=C/[C@@H]2C[C@H](OC(=O)CCC(=O)OCCCCOc3ccc(-c4cc(=S)ss4)cc3)C[C@H]2[C@H](OC(=O)CCC(=O)OCCCCOc2ccc(-c3cc(=S)ss3)cc2)/C=C/C(=O)O1	> 40 µM	–
> 40 µM	> 40 µM	> 40 µM	> 40 µM	> 40 µM	> 40 µM	C[C@H]1CCC/C=C/[C@@H]2C[C@H](OC(=O)CCCC(=O)OCCOc3ccc(-c4cc(=S)ss4)cc3)C[C@H]2[C@H](OC(=O)CCCC(=O)OCCOc2ccc(-c3cc(=S)ss3)cc2)/C=C/C(=O)O1	> 40 µM	–
> 40 µM	> 40 µM	> 40 µM	> 40 µM	> 40 µM	> 40 µM	C[C@H]1CCC/C=C/[C@@H]2C[C@H](OC(=O)CCCC(=O)OCCCCOc3ccc(-c4cc(=S)ss4)cc3)C[C@H]2[C@H](OC(=O)CCCC(=O)OCCCCOc2ccc(-c3cc(=S)ss3)cc2)/C=C/C(=O)O1	> 40 µM	–
> 40 µM	> 40 µM	> 40 µM	> 40 µM	> 40 µM	> 40 µM	C[C@H]1CCC/C=C/[C@@H]2C[C@H](OC(=O)CCC(=O)Oc3ccc(-c4cc(=S)ss4)cc3)C[C@H]2[C@H](OC(=O)CCC(=O)Oc2ccc(-c3cc(=S)ss3)cc2)/C=C/C(=O)O1	> 40 µM	–
> 40 µM	> 40 µM	> 40 µM	> 40 µM	> 40 µM	> 40 µM	C[C@H]1CCC/C=C/[C@@H]2C[C@H](OC(=O)c3ccccc3C(=O)OCCOc3ccc(-c4cc(=S)ss4)cc3)C[C@H]2[C@H](OC(=O)c2ccccc2C(=O)OCCOc2ccc(-c3cc(=S)ss3)cc2)/C=C/C(=O)O1	> 40 µM	–
> 40 µM	> 40 µM	> 40 µM	> 40 µM	> 40 µM	> 40 µM	C[C@H]1CCC/C=C/[C@@H]2C[C@H](OC(=O)c3ccccc3C(=O)Oc3ccc(-c4cc(=S)ss4)cc3)C[C@H]2[C@H](OC(=O)c2ccccc2C(=O)Oc2ccc(-c3cc(=S)ss3)cc2)/C=C/C(=O)O1	> 40 µM	–
> 40 µM	> 40 µM	> 40 µM	> 40 µM	> 40 µM	> 40 µM	C[C@H]1CCC/C=C/[C@@H]2C[C@H](OC(=O)CCCC(=O)OCCCCCCOc3ccc(-c4cc(=S)ss4)cc3)C[C@H]2[C@H](OC(=O)CCCC(=O)OCCCCCCOc2ccc(-c3cc(=S)ss3)cc2)/C=C/C(=O)O1	> 40 µM	–
> 40 µM	> 40 µM	> 40 µM	> 40 µM	> 40 µM	5.68 µM	C[C@H]1CCC/C=C/[C@@H]2C[C@H](OC(=O)CCC(=O)OCCOc3ccc(-c4cc(=S)ss4)cc3)C[C@H]2[C@H](OC(=O)CCC(=O)OCCOc2ccc(-c3cc(=S)ss3)cc2)/C=C/C(=O)O1	> 40 µM	–

Continued, molecule first:

Structure (SMILES)	IC50 [1]	IC50 [2]	IC50 [4]	IC50 [5]	IC50 [6]	IC50 [7]	IC50 at 48 h [3]	selectivity ratio [8]
C[C@H]1CCC/C=C/[C@@H]2C[C@H](O)C[C@H]2[C@H](OC(=O)CCCC(=O)OCCCCOc2ccc(-c3cc(=S)ss3)cc2)/C=C/C(=O)O1	0.43 µM	0.16 µM	0.93 µM	1.04 µM	0.44 µM	0.23 µM	0.43 µM	2.69
C[C@H]1CCC/C=C/[C@@H]2C[C@H](O)C[C@H]2[C@H](OC(=O)CCCC(=O)Oc2ccc(-c3cc(=S)ss3)cc2)/C=C/C(=O)O1	19.5 µM	9.65 µM	30 µM	18.2 µM	18 µM	5.3 µM	24.8 µM	2.57
C[C@H]1CCC/C=C/[C@@H]2C[C@H](O)C[C@H]2[C@H](OC(=O)CCC(=O)Oc2ccc(-c3cc(=S)ss3)cc2)/C=C/C(=O)O1	16.1 µM	1.35 µM	3.62 µM	3.19 µM	7.44 µM	2.35 µM	8.18 µM	6.06
CC(=O)O[C@H]1C(=O)[C@@]2(C)[C@H]([C@H](OC(=O)c3ccccc3)[C@]3(O)C[C@H](OC(=O)[C@H](O)[C@@H](NC(=O)c4ccccc4)c4ccccc4)C(C)=C1C3(C)C)[C@]1(OC(C)=O)CO[C@@H]1C[C@@H]2O [PACLITAXEL]	–	0.33 µM	0.059 µM	0.014 µM	0.55 µM	0.034 µM	0.13 µM	–
C[C@H]1CCC/C=C/[C@@H]2C[C@H](O)C[C@H]2[C@H](OC(=O)CCC(=O)OCCCCOc2ccc(-c3cc(=S)ss3)cc2)/C=C/C(=O)O1	0.87 µM	0.5 µM	0.83 µM	1.46 µM	0.72 µM	0.86 µM	1.64 µM	3.28
C[C@H]1CCC/C=C/[C@@H]2C[C@H](O)C[C@H]2[C@H](OC(=O)CCC(=O)OCCCCCCOc2ccc(-c3cc(=S)ss3)cc2)/C=C/C(=O)O1	3.64 µM	1.41 µM	0.64 µM	1.52 µM	3.42 µM	0.77 µM	3.26 µM	2.31
C[C@H]1CCC/C=C/[C@@H]2C[C@H](OC(=O)CCC(=O)OCCOc3ccc(-c4cc(=S)ss4)cc3)C[C@H]2[C@H](O)/C=C/C(=O)O1	> 40 µM	> 40 µM	> 40 µM	> 40 µM	> 40 µM	> 40 µM	> 80 µM	–
Oc1ccc(-c2cc(=S)ss2)cc1	12.7 µM	33.2 µM	> 40 µM	27.6 µM	13.8 µM	6.48 µM	16.8 µM	–
C[C@H]1CCC/C=C/[C@@H]2C[C@H](OC(=O)CCC(=O)OCCCCOc3ccc(-c4cc(=S)ss4)cc3)C[C@H]2[C@H](O)/C=C/C(=O)O1	> 40 µM	> 40 µM	> 40 µM	> 40 µM	> 40 µM	> 40 µM	> 80 µM	–
C[C@H]1CCC/C=C/[C@@H]2C[C@H](OC(=O)CCC(=O)OCCCCCCOc3ccc(-c4cc(=S)ss4)cc3)C[C@H]2[C@H](O)/C=C/C(=O)O1	> 40 µM	> 40 µM	> 40 µM	> 40 µM	> 40 µM	25.2 µM	> 80 µM	–
